From paper PMC6496074, “The Evolution of Azole Resistance in Candida albicans Sterol 14α-Demethylase (CYP51) through Incremental Amino Acid Substitutions” (Antimicrobial Agents and Chemotherapy, 2019)
“And” between values parts separate entries of the source, which are not always exact repeats. Equal values may be shown once.

What was measured:
Test in all cases: CYP51 reconstitution assay
Assay type in all cases: biochemical
CaCYP51 Y132F+F145L = target: T1, CaCYP51 Y132F+F145L (Candida albicans, UniProt P10613, F145L/Y132F)
T1 construct: made in house; host or cells: E. coli DH5α (pCWori+)
T1 sequence (P10613 whole entry, looked up, stated change not applied): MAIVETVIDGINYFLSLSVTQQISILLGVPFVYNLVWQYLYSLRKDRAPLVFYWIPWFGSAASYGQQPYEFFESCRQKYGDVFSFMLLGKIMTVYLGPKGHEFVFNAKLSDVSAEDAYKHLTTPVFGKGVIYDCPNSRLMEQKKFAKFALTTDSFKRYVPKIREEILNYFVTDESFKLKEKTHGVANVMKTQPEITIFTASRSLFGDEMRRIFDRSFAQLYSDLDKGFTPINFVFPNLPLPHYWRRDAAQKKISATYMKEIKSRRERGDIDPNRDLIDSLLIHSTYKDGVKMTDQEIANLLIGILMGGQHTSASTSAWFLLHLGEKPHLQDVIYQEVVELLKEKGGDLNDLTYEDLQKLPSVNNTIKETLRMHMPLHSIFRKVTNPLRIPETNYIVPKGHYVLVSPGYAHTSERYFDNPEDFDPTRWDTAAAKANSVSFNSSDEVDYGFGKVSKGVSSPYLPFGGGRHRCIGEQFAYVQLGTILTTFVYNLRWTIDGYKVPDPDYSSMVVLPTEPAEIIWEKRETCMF
Experimental: (§1) Azole antifungal agents were added in 2.5 μl dimethyl sulfoxide, followed by 10 min of incubation at 37°C prior to assay initiation with 4 mM β-NADPH-Na4. The samples were then shaken for 15 min at 37°C. Sterol metabolites were recovered by extraction with ethyl acetate, followed by derivatization with 0.1 ml N,O-bis(trimethylsilyl)trifluoroacetamide (BSTFA)–trimethylchlorosilane (TMCS) (99:1) and 0.3 ml anhydrous pyridine (2 h at 80°C), prior to analysis by gas chromatography-mass spectrometry (GC-MS) ([52]). IC50 determinations were performed in duplicate.

CaCYP51 D278N = target: T2, CaCYP51 D278N (Candida albicans, UniProt P10613, D278N)
T2 construct: made in house; host or cells: E. coli DH5α (pCWori+)
Experimental: as §1

CaCYP51 D278N+G464S = target: T3, CaCYP51 D278N+G464S (Candida albicans, UniProt P10613, D278N/G464S)
T3 construct: made in house; host or cells: E. coli DH5α (pCWori+)
T3 sequence (P10613 whole entry, looked up, stated change not applied): as above
Experimental: as §1

CaCYP51 F126V = target: T4, CaCYP51 F126V (Candida albicans, UniProt P10613, F126V)
T4 construct: made in house; host or cells: E. coli DH5α (pCWori+)
Experimental: as §1

CaCYP51 F145L = target: T5, CaCYP51 F145L (Candida albicans, UniProt P10613, F145L)
T5 construct: made in house; host or cells: E. coli DH5α (pCWori+)
Experimental: as §1

CaCYP51 F449Y = target: T6, CaCYP51 F449Y (Candida albicans, UniProt P10613, F449Y)
T6 construct: made in house; host or cells: E. coli DH5α (pCWori+)
Experimental: as §1

CaCYP51 G307S = target: T7, CaCYP51 G307S (Candida albicans, UniProt P10613, G307S)
T7 construct: made in house; host or cells: E. coli DH5α (pCWori+)
T7 sequence (P10613 whole entry, looked up, stated change not applied): as above
Experimental: as §1

CaCYP51 G307S+G450E = target: T8, CaCYP51 G307S+G450E (Candida albicans, UniProt P10613, G307S/G450E)
T8 construct: made in house; host or cells: E. coli DH5α (pCWori+)
Experimental: as §1

CaCYP51 G448E = target: T9, CaCYP51 G448E (Candida albicans, UniProt P10613, G448E)
T9 construct: made in house; host or cells: E. coli DH5α (pCWori+)
Experimental: as §1

CaCYP51 G450E = target: T10, CaCYP51 G450E (Candida albicans, UniProt P10613, G450E)
T10 construct: made in house; host or cells: E. coli DH5α (pCWori+)
Experimental: as §1

CaCYP51 G464S = target: T11, CaCYP51 G464S (Candida albicans, UniProt P10613, G464S)
T11 construct: made in house; host or cells: E. coli DH5α (pCWori+)
T11 sequence (P10613 whole entry, looked up, stated change not applied): as above
Experimental: as §1

CaCYP51 I471T = target: T12, CaCYP51 I471T (Candida albicans, UniProt P10613, I471T)
T12 construct: made in house; host or cells: E. coli DH5α (pCWori+)
Experimental: as §1

CaCYP51 K143R = target: T13, CaCYP51 K143R (Candida albicans, UniProt P10613, K143R)
T13 construct: made in house; host or cells: E. coli DH5α (pCWori+)
Experimental: as §1

CaCYP51 P230L = target: T14, CaCYP51 P230L (Candida albicans, UniProt P10613, P230L)
T14 construct: made in house; host or cells: E. coli DH5α (pCWori+)
Experimental: as §1

CaCYP51 Q474K = target: T15, CaCYP51 Q474K (Candida albicans, UniProt P10613, Q474K)
T15 construct: made in house; host or cells: E. coli DH5α (pCWori+)
T15 sequence (P10613 whole entry, looked up, stated change not applied): as above
Experimental: as §1

CaCYP51 R467K = target: T16, CaCYP51 R467K (Candida albicans, UniProt P10613, R467K)
T16 construct: made in house; host or cells: E. coli DH5α (pCWori+)
Experimental: as §1

CaCYP51 S279F = target: T17, CaCYP51 S279F (Candida albicans, UniProt P10613, S279F)
T17 construct: made in house; host or cells: E. coli DH5α (pCWori+)
Experimental: as §1

CaCYP51 S405F = target: T18, CaCYP51 S405F (Candida albicans, UniProt P10613, S405F)
T18 construct: made in house; host or cells: E. coli DH5α (pCWori+)
Experimental: as §1

CaCYP51 V437I = target: T19, CaCYP51 V437I (Candida albicans, UniProt P10613, V437I)
T19 construct: made in house; host or cells: E. coli DH5α (pCWori+)
Experimental: as §1

CaCYP51 V456I = target: T20, CaCYP51 V456I (Candida albicans, UniProt P10613, V456I)
T20 construct: made in house; host or cells: E. coli DH5α (pCWori+)
Experimental: as §1

CaCYP51 V488I = target: T21, CaCYP51 V488I (Candida albicans, UniProt P10613, V488I)
T21 construct: made in house; host or cells: E. coli DH5α (pCWori+)
Experimental: as §1

CaCYP51 Wild type = target: T22, CaCYP51 Wild type (Candida albicans, UniProt P10613); conditions: Wild type
T22 construct: made in house; host or cells: E. coli DH5α (pCWori+)
T22 sequence (P10613 whole entry, looked up, natural form): as the sequence (P10613 whole entry, looked up, stated change not applied) above
Experimental: as §1

CaCYP51 Y118A = target: T23, CaCYP51 Y118A (Candida albicans, UniProt P10613, Y118A)
T23 construct: made in house; host or cells: E. coli DH5α (pCWori+)
Experimental: as §1

CaCYP51 Y132F = target: T24, CaCYP51 Y132F (Candida albicans, UniProt P10613, Y132F); conditions: mean ± SD, duplicate
T24 construct: made in house; host or cells: E. coli DH5α (pCWori+)
Experimental: as §1

CaCYP51 Y132H = target: T25, CaCYP51 Y132H (Candida albicans, UniProt P10613, Y132H)
T25 construct: made in house; host or cells: E. coli DH5α (pCWori+)
T25 sequence (P10613 whole entry, looked up, stated change not applied): as above
Experimental: as §1

CaCYP51 Y132H+K143R = target: T26, CaCYP51 Y132H+K143R (Candida albicans, UniProt P10613, K143R/Y132H)
T26 construct: made in house; host or cells: E. coli DH5α (pCWori+)
Experimental: as §1

CaCYP51 Y257H = target: T27, CaCYP51 Y257H (Candida albicans, UniProt P10613, Y257H)
T27 construct: made in house; host or cells: E. coli DH5α (pCWori+)
T27 sequence (P10613 whole entry, looked up, stated change not applied): as above
Experimental: as §1

CaCYP51 Y447H = target: T28, CaCYP51 Y447H (Candida albicans, UniProt P10613, Y447H)
T28 construct: made in house; host or cells: E. coli DH5α (pCWori+)
T28 sequence (P10613 whole entry, looked up, stated change not applied): as above
Experimental: as §1

[1] = 0.25 h, 4 μM triazole, % of activity without triazole, read-out: Residual CYP51 activity (%) ± SD

In the case of `CC[C@@H]([C@H](C)O)n1ncn(-c2ccc(N3CCN(c4ccc(OC[C@@H]5CO[C@@](Cn6cncn6)(c6ccc(F)cc6F)C5)cc4)CC3)cc2)c1=O` [Posaconazole, posaconazole], the IC50 (CaCYP51 Y132F+F145L) is reported as 433 ± 102 nM, the remaining activity at 4 µM (CaCYP51 Y132F+F145L; 0.25 h, read-out: Residual CYP51 activity (%) ± SD) is reported as 2.64 ± 0.08% and the remaining activity at 4 µM (CaCYP51 D278N; [1]) is reported as 14.8 ± 0.92%. The IC50 (CaCYP51 D278N; mean ± SD, duplicate) was 908 ± 20 nM, the “fold increase in IC50 over wild-type enzyme” value (CaCYP51 D278N+G464S) was 4.8 fold and the remaining activity at 4 µM (CaCYP51 D278N+G464S; [1]) was 15 ± 1.16%. For the same compound, the IC50 (CaCYP51 D278N+G464S; mean ± SD, duplicate) was 930 ± 9 nM, the remaining activity at 4 µM (CaCYP51 F126V; [1]) was 0.1 ± 0.01% and the IC50 (CaCYP51 F126V; mean ± SD, duplicate) was 304 ± 70 nM. The remaining activity at 4 µM (CaCYP51 F145L; [1]) was 1.37 ± 1.21%, the IC50 (CaCYP51 F145L; mean ± SD, duplicate) was 359 ± 18 nM and the remaining activity at 4 µM (CaCYP51 F449Y; [1]) was 5.42 ± 0.04%. It also gave an IC50 (CaCYP51 F449Y; mean ± SD, duplicate) of 366 ± 37 nM, a remaining activity at 4 µM (CaCYP51 G307S; [1]) of 0.71 ± 0.04% and an IC50 (CaCYP51 G307S; mean ± SD, duplicate) of 288 ± 42 nM. For the same compound, the remaining activity at 4 µM (CaCYP51 G307S+G450E; [1]) was 0.26 ± 0.11%, the IC50 (CaCYP51 G307S+G450E; mean ± SD, duplicate) was 312 ± 15 nM and the remaining activity at 4 µM (CaCYP51 G448E; [1]) was 7.89 ± 0.29%. The IC50 (CaCYP51 G448E; mean ± SD, duplicate) was 542 ± 51 nM, the remaining activity at 4 µM (CaCYP51 G450E; [1]) was 15.6 ± 0.21% and the IC50 (CaCYP51 G450E; mean ± SD, duplicate) was 908 ± 132 nM. It also gave a remaining activity at 4 µM (CaCYP51 G464S; [1]) of 0.54 ± 0.09%, an IC50 (CaCYP51 G464S; mean ± SD, duplicate) of 253 ± 24 nM and a remaining activity at 4 µM (CaCYP51 I471T; [1]) of 7.71 ± 0.58%. The IC50 (CaCYP51 I471T; mean ± SD, duplicate) was 522 ± 64 nM, the remaining activity at 4 µM (CaCYP51 K143R; [1]) was 13.09 ± 0.02% and the IC50 (CaCYP51 K143R; mean ± SD, duplicate) was 789 ± 3 nM. It also gave a remaining activity at 4 µM (CaCYP51 P230L; [1]) of 0.21 ± 0.05%, an IC50 (CaCYP51 P230L; mean ± SD, duplicate) of 238 ± 2 nM and a remaining activity at 4 µM (CaCYP51 Q474K; [1]) of 3.23 ± 0.18%. The IC50 (CaCYP51 Q474K; mean ± SD, duplicate) was 301 ± 17 nM, the remaining activity at 4 µM (CaCYP51 R467K; [1]) was 3.62 ± 0.09% and the IC50 (CaCYP51 R467K; mean ± SD, duplicate) was 380 ± 11 nM. For the same compound, the remaining activity at 4 µM (CaCYP51 S279F; [1]) was 20.64 ± 0.1%, the IC50 (CaCYP51 S279F; mean ± SD, duplicate) was 912 ± 16 nM and the remaining activity at 4 µM (CaCYP51 S405F; [1]) was 9.38 ± 0.53%. For the same compound, the IC50 (CaCYP51 S405F; mean ± SD, duplicate) was 637 ± 54 nM, the remaining activity at 4 µM (CaCYP51 V437I; [1]) was 0.59 ± 0.2% and the IC50 (CaCYP51 V437I; mean ± SD, duplicate) was 319 ± 9 nM. For the same compound, the remaining activity at 4 µM (CaCYP51 V456I; [1]) was 6.66 ± 0.05%, the IC50 (CaCYP51 V456I; mean ± SD, duplicate) was 602 ± 17 nM and the remaining activity at 4 µM (CaCYP51 V488I; [1]) was 2.11 ± 0.14%. For the same compound, the IC50 (CaCYP51 V488I; mean ± SD, duplicate) was 481 ± 52 nM, the remaining activity at 4 µM (CaCYP51 Wild type; [1]) was 0.66 ± 0.02% and the IC50 (CaCYP51 Wild type; mean ± SD, duplicate, read-out: IC50) was 200 nM and 195 nM. The remaining activity at 4 µM (CaCYP51 Y118A; [1]) was 0.46 ± 0.35%, the IC50 (CaCYP51 Y118A; mean ± SD, duplicate) was 206 ± 4 nM and the IC50 (CaCYP51 Y132F) was 343 ± 20 nM. The remaining activity at 4 µM (CaCYP51 Y132H; [1]) was 0.18 ± 0.06%, the IC50 (CaCYP51 Y132H; mean ± SD, duplicate) was 195 ± 3 nM and the remaining activity at 4 µM (CaCYP51 Y132H+K143R; [1]) was 0.74 ± 0.05%. The IC50 (CaCYP51 Y132H+K143R; mean ± SD, duplicate) was 196 ± 7 nM, the remaining activity at 4 µM (CaCYP51 Y257H; [1]) was 6.42 ± 0.59% and the IC50 (CaCYP51 Y257H; mean ± SD, duplicate) was 611 ± 17 nM. It also gave a remaining activity at 4 µM (CaCYP51 Y447H; [1]) of 8.19 ± 3.58% and an IC50 (CaCYP51 Y447H; mean ± SD, duplicate) of 439 ± 135 nM.
